Test results from patent US11498899B2, “Nitrone herbicides” (FMC Corporation, priority 2016, dated 2022).

Key:
[1] = test system: barnyardgrass (Echinochloa crus-galli); assay: Test A preemergence, visual injury rating 0-100 (0 no effect, 100 complete control); type: in vivo; settings: for Barnyardgrass plant response rating: 0 to 100 scale (0 no effect, 100 complete control), approx. 10 days
[2] = test system: foxtail, giant (giant foxtail, Setaria faberii); assay: Test A preemergence, visual injury rating 0-100; type: in vivo; settings: for Foxtail, Giant plant response rating: 0 to 100 scale (0 no effect, 100 complete control), approx. 10 days
[3] = test system: kochia (Kochia scoparia); assay: Test A preemergence, visual injury rating 0-100; type: in vivo; settings: for Kochia plant response rating: 0 to 100 scale (0 no effect, 100 complete control), approx. 10 days
[4] = test system: pigweed (Amaranthus retroflexus); assay: Test A preemergence, visual injury rating 0-100; type: in vivo; settings: for Pigweed plant response rating: 0 to 100 scale (0 no effect, 100 complete control), approx. 10 days
[5] = test system: ragweed (common ragweed, Ambrosia elatior); assay: Test A preemergence, visual injury rating 0-100; type: in vivo; settings: for Ragweed plant response rating: 0 to 100 scale (0 no effect, 100 complete control), approx. 10 days
[6] = test system: ryegrass, Italian (Italian ryegrass, Lolium multiflorum); assay: Test A preemergence, visual injury rating 0-100; type: in vivo; settings: for Ryegrass, Italian plant response rating (0 to 100 scale): 500 g ai/ha; for Ryegrass, Italian plant response rating: 125 g ai/ha, 0 to 100 scale (0 no effect, 100 complete control), approx. 10 days
[7] = test system: barnyardgrass (Echinochloa crus-galli); assay: Test A postemergence, visual injury rating 0-100; type: in vivo; settings: 0 to 100 scale
[8] = test system: blackgrass (Alopecurus myosuroides); assay: Test A postemergence, visual injury rating 0-100; type: in vivo; settings: 0 to 100 scale
[9] = test system: corn (Zea mays); assay: Test A postemergence, visual injury rating 0-100; type: in vivo; settings: 0 to 100 scale
[10] = test system: foxtail, giant (giant foxtail, Setaria faberii); assay: Test A postemergence, visual injury rating 0-100; type: in vivo; settings: 0 to 100 scale
[11] = test system: galium (catchweed bedstraw, Galium aparine); assay: Test A postemergence, visual injury rating 0-100; type: in vivo; settings: 0 to 100 scale
[12] = test system: kochia (Kochia scoparia); assay: Test A postemergence, visual injury rating 0-100; type: in vivo; settings: 0 to 100 scale
[13] = test system: pigweed (Amaranthus retroflexus); assay: Test A postemergence, visual injury rating 0-100; type: in vivo; settings: 0 to 100 scale
[14] = test system: ragweed (common ragweed, Ambrosia elatior); assay: Test A postemergence, visual injury rating 0-100; type: in vivo; settings: 0 to 100 scale
[15] = test system: ryegrass, Italian (Italian ryegrass, Lolium multiflorum); assay: Test A postemergence, visual injury rating 0-100; type: in vivo; settings: 0 to 100 scale
[16] = test system: wheat (Triticum aestivum); assay: Test A postemergence, visual injury rating 0-100; type: in vivo; settings: 0 to 100 scale
[17] = test system: ducksalad (Heteranthera limosa); assay: Test B flooded paddy test, visual rating 0-100; settings: Flood, 250 g ai/ha, applied to paddy water, rated after 13 to 15 days
[18] = test system: barnyardgrass (Echinochloa crus-galli); assay: Test B flooded paddy test, visual rating 0-100; settings: Flood, 250 g ai/ha, applied to paddy water, rated after 13 to 15 days
[19] = test system: rice (Oryza sativa); assay: Test B flooded paddy test, visual rating 0-100 (0 no effect, 100 complete control); settings: Flood, 250 g ai/ha, applied to paddy water, rated after 13 to 15 days

Row | SMILES | Barnyardgrass plant response rating (0 to 100 scale) ([1]; 500 g ai/ha) | Foxtail, Giant plant response rating (0 to 100 scale) ([2]; 500 g ai/ha) | Kochia plant response rating (0 to 100 scale) ([3]; 500 g ai/ha) | Pigweed plant response rating (0 to 100 scale) ([4]; 500 g ai/ha) | Ryegrass, Italian plant response rating (0 to 100 scale) [6] | Barnyardgrass plant response rating ([7]; 125 g ai/ha) | Barnyardgrass plant response rating ([7]; 500 g ai/ha) | Blackgrass plant response rating ([8]; 125 g ai/ha) | Blackgrass plant response rating ([8]; 500 g ai/ha) | Corn plant response rating ([9]; 125 g ai/ha) | Corn plant response rating ([9]; 500 g ai/ha) | Foxtail, Giant plant response rating ([10]; 125 g ai/ha) | Foxtail, Giant plant response rating ([10]; 500 g ai/ha) | Galium plant response rating ([11]; 125 g ai/ha) | Galium plant response rating ([11]; 500 g ai/ha) | Kochia plant response rating ([12]; 125 g ai/ha) | Kochia plant response rating ([12]; 500 g ai/ha) | Pigweed plant response rating ([13]; 125 g ai/ha) | Pigweed plant response rating ([13]; 500 g ai/ha) | Ragweed plant response rating ([14]; 125 g ai/ha) | further results
1 | CCOc1cc(OC)cc(C2CC(C)=[N+]([O-])C2C(=O)Nc2cccc(F)c2F)c1 (racemic) [Compound 116] | 90 | 90 | 0 | 0 | 80 | 50 | 80 | 80 | 80 | 30 | 60 | 60 | 90 | 0 | 20 | 0 | 20 | 0 | 0 | 0 | Barnyardgrass plant response rating (0 to 100 scale) ([1]; 125 g ai/ha): 80; Foxtail, Giant plant response rating (0 to 100 scale) ([2]; 125 g ai/ha): 90; Kochia plant response rating (0 to 100 scale) ([3]; 125 g ai/ha): 0; Pigweed plant response rating (0 to 100 scale) ([4]; 125 g ai/ha): 0; Ragweed plant response rating (0 to 100 scale) ([5]; 125 g ai/ha): 0; Ragweed plant response rating (0 to 100 scale) ([5]; 500 g ai/ha): 0; Ragweed plant response rating ([14]; 500 g ai/ha): 0; Ryegrass, Italian plant response rating ([15]; 125 g ai/ha): 0; Ryegrass, Italian plant response rating ([15]; 500 g ai/ha): 80; Wheat plant response rating ([16]; 125 g ai/ha): 20; Wheat plant response rating ([16]; 500 g ai/ha): 70; Ducksalad plant response rating (0 to 100 scale) [17]: 0; Barnyardgrass plant response rating (0 to 100 scale) [18]: 0; Rice plant response rating (0 to 100 scale) [19]: 0
2 | CC1=[N+]([O-])C(C(=O)Nc2cccc(F)c2F)C(c2cccc(Cl)c2C)C1 (racemic) [Compound 117] | 90 | 90 | 80 | 80 | 90 | 60 | 80 | 60 | 70 | 30 | 70 | 80 | 90 | 70 | 70 | 0 | 60 | 0 | 70 | 0 | Barnyardgrass plant response rating ([1]; 125 g ai/ha): 90; Foxtail, Giant plant response rating ([2]; 125 g ai/ha): 90; Kochia plant response rating ([3]; 125 g ai/ha): 10; Pigweed plant response rating ([4]; 125 g ai/ha): 60; Ragweed plant response rating ([5]; 125 g ai/ha): 30; Ragweed plant response rating (0 to 100 scale) ([5]; 500 g ai/ha): 90; Ryegrass, Italian plant response rating [6]: 60; Ragweed plant response rating ([14]; 500 g ai/ha): 60; Ryegrass, Italian plant response rating ([15]; 125 g ai/ha): 30; Ryegrass, Italian plant response rating ([15]; 500 g ai/ha): 60; Wheat plant response rating ([16]; 125 g ai/ha): 20; Wheat plant response rating ([16]; 500 g ai/ha): 80; Ducksalad plant response rating (0 to 100 scale) [17]: 0; Barnyardgrass plant response rating (0 to 100 scale) [18]: 0; Rice plant response rating (0 to 100 scale) [19]: 0
3 | CC1=[N+]([O-])C(C(=O)Nc2cccc(F)c2F)C(c2cccc3c2CCC3)C1 (racemic) [Compound 118] | 100 | 100 | 80 | 80 | 100 | 60 | 80 | 50 | 70 | 70 | 80 | 50 | 90 | 50 | 50 | 50 | 60 | 0 | 30 | 0 | Barnyardgrass plant response rating ([1]; 125 g ai/ha): 90; Foxtail, Giant plant response rating ([2]; 125 g ai/ha): 90; Kochia plant response rating ([3]; 125 g ai/ha): 20; Pigweed plant response rating ([4]; 125 g ai/ha): 40; Ragweed plant response rating ([5]; 125 g ai/ha): 70; Ragweed plant response rating (0 to 100 scale) ([5]; 500 g ai/ha): 90; Ryegrass, Italian plant response rating [6]: 90; Ragweed plant response rating ([14]; 500 g ai/ha): 70; Ryegrass, Italian plant response rating ([15]; 125 g ai/ha): 50; Ryegrass, Italian plant response rating ([15]; 500 g ai/ha): 90; Wheat plant response rating ([16]; 125 g ai/ha): 40; Wheat plant response rating ([16]; 500 g ai/ha): 80; Ducksalad plant response rating (0 to 100 scale) [17]: 90; Barnyardgrass plant response rating (0 to 100 scale) [18]: 95; Rice plant response rating (0 to 100 scale) [19]: 15
4 | CC1=[N+]([O-])C(C(=O)Nc2cccc(F)c2F)C(c2ccc(=O)n(Cc3ccc(Cl)cc3)c2)C1 (racemic) [Compound 119] | 0 | 0 | 0 | 0 | 0 | 0 | 0 | 0 | 0 | 0 | 0 | 0 | 0 | 0 | 0 | 0 | 0 | 0 | 0 | 0 | Barnyardgrass plant response rating ([1]; 125 g ai/ha): 0; Foxtail, Giant plant response rating ([2]; 125 g ai/ha): 0; Kochia plant response rating ([3]; 125 g ai/ha): 0; Pigweed plant response rating ([4]; 125 g ai/ha): 0; Ragweed plant response rating ([5]; 125 g ai/ha): 0; Ryegrass, Italian plant response rating [6]: 0; Ragweed plant response rating ([14]; 500 g ai/ha): 0; Ryegrass, Italian plant response rating ([15]; 125 g ai/ha): 10; Ryegrass, Italian plant response rating ([15]; 500 g ai/ha): 20; Wheat plant response rating ([16]; 125 g ai/ha): 0; Wheat plant response rating ([16]; 500 g ai/ha): 0; Ducksalad plant response rating (0 to 100 scale) [17]: 0; Barnyardgrass plant response rating (0 to 100 scale) [18]: 0; Rice plant response rating (0 to 100 scale) [19]: 0
5 | CCC1=[N+]([O-])C(C(=O)Nc2cccc(F)c2F)C(c2ccc(C(F)(F)F)cc2)C1 (racemic) [Compound 120] | 90 | 90 | 70 | 60 | 70 | 20 | 70 | 0 | 20 | 0 | 0 | 0 | 80 | 20 | 50 | 0 | 30 | 10 | 20 | 0 | Barnyardgrass plant response rating ([1]; 125 g ai/ha): 80; Foxtail, Giant plant response rating ([2]; 125 g ai/ha): 70; Kochia plant response rating ([3]; 125 g ai/ha): 0; Pigweed plant response rating ([4]; 125 g ai/ha): 30; Ragweed plant response rating (0 to 100 scale) ([5]; 500 g ai/ha): 80; Ryegrass, Italian plant response rating [6]: 0; Ragweed plant response rating ([14]; 500 g ai/ha): 40; Ryegrass, Italian plant response rating ([15]; 125 g ai/ha): 0; Ryegrass, Italian plant response rating ([15]; 500 g ai/ha): 0; Wheat plant response rating ([16]; 125 g ai/ha): 0; Wheat plant response rating ([16]; 500 g ai/ha): 0; Ducksalad plant response rating (0 to 100 scale) [17]: 70; Barnyardgrass plant response rating (0 to 100 scale) [18]: 15; Rice plant response rating (0 to 100 scale) [19]: 0
